Test results reported in patent publication US11530237B2, “Compositions and methods for treating CNS disorders” (Sage Therapeutics, Inc., priority 2014, dated 2022).

biological target: α1β2γ2 GABAA receptors (Homo sapiens (Human), UniProt P14867+P47870); experiment: Patch clamp electrophysiology (QPatch) of recombinant α1β2γ2 GABAA receptors in LTK cells; format: cell-based; details: 10 μM test article, GABA EC20 = 2 μM, read-out: GABA (α1β2γ2) Qpatch in Ltk, % efficacy at 10 μM
Method: Cellular electrophysiology is used to measure the pharmacological properties of our GABAA receptor modulators in heterologous cell systems. Each compound is tested for its ability to affect GABA mediated currents at a suhmaximal agonist dose (GABA EC20=2 μM). LTK cells are stably transfected with the α1β2γ2 subunits of the GABA receptor and CHO cells are transiently transfected with the α4β3δ subunits via the Lipofecatamine method. Cells were passaged at a confluence of about 50-80% and then seeded onto 35 mm sterile culture dishes containing 2 ml culture complete medium without antibiotics or antimycotics. Confluent clusters of cells are electrically coupled (Pritchett et al., Science, 1988, 242, 1306-1308). Because responses in distant cells are not adequately voltage clamped and because of uncertainties about the extent of coupling (Verdoom et al., Neuron 1990, 4, 919-928), cells were cultivated at a density that enables the recording of single cells (without visible connections to other cells).
Whole cell currents were measured with HEKA EPC-10 amplifiers using PatchMaster software or by using the high throughput QPatch platform (Sophion). Bath solution for all experiments contained (in mM): NaCl 137 mM, KCl 4 mM, CaCl2 1.8 mM, MgCl2 1 mM, HEPES 10 mM, D-Glucose 10 mM, pH (NaOH) 7.4. In some cases 0.005% cremophor was also added. Intracellular (pipette) solution contained: KCl 130 mM, MgCl2 1 mM, Mg-ATP 5 mM, HEPES 10 mM, EGTA 5 mM, pH 7.2. During experiments, cells and solutions were maintained at room temperature (19° C.-30° C.). For manual patch clamp recordings, cell culture dishes were placed on the dish holder of the microscope and continuously perfused (1 ml/min) with bath solution. After formation of a Gigaohm seal between the patch electrodes and the cell (-ipette resistance range: 2.5 MΩ-6.0 MΩ; seal resistance range:>1 GΩ) the cell membrane across the pipette tip was ruptured to assure electrical access to the cell interior (whole-cell patch-configuration). For experiments using the QPatch system, cells were transferred as suspension to the QPatch system in the bath solution and automated whole cell recordings were performed.
Cells were voltage clamped at a holding potential of −80 mV. For the analysis of test articles, GABA receptors were stimulated by 2 μM GABA after sequential pre-incubation of increasing concentrations of the test article. Pre-incubation duration was 30 s and the duration of the GABA stimulus was 2s. Test articles were dissolved in DMSO to form stock solutions (10 mM). Test articles were diluted to 0.01, 0.1, 1, and 10 μM in bath solution. All concentrations of test articles were tested on each cell. The relative percentage potentiation was defined as the peak amplitude in response to GABA EC20 in the presence of the test article divided by the peak amplitude in response to GABA EC20 alone, multiplied by 100. For Table 2. GABAA receptors α1β2γ2 and α4β3δ% efficacy: “A” 10-100, “B”>100-500, “C”>500; D indicates the data is not available or has not been determined.

Compound	Emax at 10 µM
CO[C@H]1C[C@@]2(C)[C@@H](CC[C@@H]3[C@@H]2CC[C@]2(C)[C@@H](C(=O)CN4CCOCC4)CC[C@@H]32)C[C@@H]1O [Compound 1]	100 to 500%
CO[C@H]1C[C@@]2(C)[C@@H](CC[C@@H]3[C@@H]2CC[C@]2(C)[C@@H](C(=O)Cn4ccnn4)CC[C@@H]32)C[C@@H]1O [Compound 3]	100 to 500%
CO[C@H]1C[C@@]2(C)[C@@H](CC[C@@H]3[C@@H]2CC[C@]2(C)[C@@H](C(=O)Cn4nccn4)CC[C@@H]32)C[C@]1(C)O [Compound 42]	100 to 500%
C[C@@]1(O)CC[C@@]2(C)[C@@H](CC[C@@H]3[C@@H]2CC[C@]2(C)[C@@H](C(=O)Cn4nc5ccc(Cl)c(F)c5n4)CC[C@@H]32)C1 [Compound 112]	100 to 500%
COc1ccc2nn(CC(=O)[C@H]3CC[C@H]4[C@@H]5CC[C@H]6C[C@](C)(O)CC[C@]6(C)[C@H]5CC[C@]34C)nc2c1 [Compound 125]	100 to 500%
COc1ccc2nnn(CC(=O)[C@H]3CC[C@H]4[C@@H]5CC[C@H]6C[C@](C)(O)CC[C@]6(C)[C@H]5CC[C@]34C)c2c1 [Compound 126]	100 to 500%
COc1ccc2c(c1)nnn2CC(=O)[C@H]1CC[C@H]2[C@@H]3CC[C@H]4C[C@](C)(O)CC[C@]4(C)[C@H]3CC[C@]12C [Compound 127]	100 to 500%
C[C@@]1(O)CC[C@@]2(C)[C@@H](CC[C@@H]3[C@@H]2CC[C@]2(C)[C@@H](C(=O)Cn4nc5cccc(F)c5n4)CC[C@@H]32)C1 [Compound 128]	100 to 500%
C[C@@]1(O)CC[C@@]2(C)[C@@H](CC[C@@H]3[C@@H]2CC[C@]2(C)[C@@H](C(=O)Cn4ccnc4C#N)CC[C@@H]32)C1 [Compound 129]	100 to 500%
Cc1cnn(CC(=O)[C@H]2CC[C@H]3[C@@H]4CC[C@H]5C[C@](C)(O)CC[C@]5(C)[C@H]4CC[C@]23C)c1 [Compound 130]	100 to 500%
C[C@@]1(O)CC[C@@]2(C)[C@@H](CC[C@@H]3[C@@H]2CC[C@]2(C)[C@@H](C(=O)Cn4cc(C(F)(F)F)cn4)CC[C@@H]32)C1 [Compound 131]	100 to 500%
Cc1cn(CC(=O)[C@H]2CC[C@H]3[C@@H]4CC[C@H]5C[C@](C)(O)CC[C@]5(C)[C@H]4CC[C@]23C)cn1 [Compound 135]	100 to 500%
Cc1cncn1CC(=O)[C@H]1CC[C@H]2[C@@H]3CC[C@H]4C[C@](C)(O)CC[C@]4(C)[C@H]3CC[C@]12C [Compound 136]	100 to 500%
C[C@@]1(O)CC[C@@]2(C)[C@@H](CC[C@@H]3[C@@H]2CC[C@]2(C)[C@@H](C(=O)Cn4cc(Cl)cn4)CC[C@@H]32)C1 [Compound 137]	100 to 500%
COC[C@@]1(O)CC[C@@]2(C)[C@@H](CC[C@@H]3[C@@H]2CC[C@]2(C)[C@@H](C(=O)Cn4cc(C(F)(F)F)cn4)CC[C@@H]32)C1 [Compound 140]	100 to 500%
COC[C@@]1(O)CC[C@@]2(C)[C@@H](CC[C@@H]3[C@@H]2CC[C@]2(C)[C@@H](C(=O)Cn4ccnc4)CC[C@@H]32)C1 [Compound 141]	> 500%
CCOc1cnn(CC(=O)[C@H]2CC[C@H]3[C@@H]4CC[C@@H]5C[C@](C)(O)CC[C@]5(C)[C@H]4CC[C@]23C)c1 [Compound 145]	> 500%

Compound	Emax at 10 µM
Cc1cnn(CC(=O)[C@H]2CC[C@H]3[C@@H]4CC[C@@H]5C[C@](C)(O)CC[C@]5(C)[C@H]4CC[C@]23C)c1 [Compound 147]	> 500%
COc1cnn(CC(=O)[C@H]2CC[C@H]3[C@@H]4CC[C@H]5C[C@](C)(O)CC[C@]5(C)[C@H]4CC[C@]23C)c1 [Compound 148]	100 to 500%
C[C@@]1(O)CC[C@@]2(C)[C@@H](CC[C@@H]3[C@@H]2CC[C@]2(C)[C@@H](C(=O)Cn4cnc(C#N)c4)CC[C@@H]32)C1 [Compound 154]	100 to 500%
COC[C@@]1(O)CC[C@@]2(C)[C@@H](CC[C@@H]3[C@@H]2CC[C@]2(C)[C@@H](C(=O)Cn4cc(OC)cn4)CC[C@@H]32)C1 [Compound 158]	100 to 500%
CCOc1cnn(CC(=O)[C@H]2CC[C@H]3[C@@H]4CC[C@H]5C[C@@](O)(COC)CC[C@]5(C)[C@H]4CC[C@]23C)c1 [Compound 159]	> 500%
CNC(=O)c1cnn(CC(=O)[C@H]2CC[C@H]3[C@@H]4CC[C@H]5C[C@@](O)(COC)CC[C@]5(C)[C@H]4CC[C@]23C)c1 [Compound 161]	10 to 100%
COC[C@@]1(O)CC[C@@]2(C)[C@@H](CC[C@@H]3[C@@H]2CC[C@]2(C)[C@@H](C(=O)Cn4nc5ccc(Cl)cc5n4)CC[C@@H]32)C1 [Compound 165]	100 to 500%
COc1cnn(CC(=O)[C@H]2CC[C@H]3[C@@H]4CC[C@@H]5C[C@](C)(O)CC[C@]5(C)[C@H]4CC[C@]23C)c1 [Compound 166]	100 to 500%
C[C@@]1(O)CC[C@@]2(C)[C@H](CC[C@@H]3[C@@H]2CC[C@]2(C)[C@@H](C(=O)Cn4cc(C(N)=O)cn4)CC[C@@H]32)C1 [Compound 167]	100 to 500%
CNC(=O)c1cnn(CC(=O)[C@H]2CC[C@H]3[C@@H]4CC[C@@H]5C[C@](C)(O)CC[C@]5(C)[C@H]4CC[C@]23C)c1 [Compound 168]	100 to 500%
CN(C)C(=O)c1cnn(CC(=O)[C@H]2CC[C@H]3[C@@H]4CC[C@@H]5C[C@](C)(O)CC[C@]5(C)[C@H]4CC[C@]23C)c1 [Compound 169]	100 to 500%
CC(=O)Nc1cnn(CC(=O)[C@H]2CC[C@H]3[C@@H]4CC[C@@H]5C[C@](C)(O)CC[C@]5(C)[C@H]4CC[C@]23C)c1 [Compound 171]	100 to 500%
Cc1cn(CC(=O)[C@H]2CC[C@H]3[C@@H]4CC[C@@H]5C[C@](C)(O)CC[C@]5(C)[C@H]4CC[C@]23C)cn1 [Compound 172]	100 to 500%
CC(C)Oc1cnn(CC(=O)[C@H]2CC[C@H]3[C@@H]4CC[C@@H]5C[C@](C)(O)CC[C@]5(C)[C@H]4CC[C@]23C)c1 [Compound 173]	100 to 500%
Cc1nccn1CC(=O)[C@H]1CC[C@H]2[C@@H]3CC[C@@H]4C[C@](C)(O)CC[C@]4(C)[C@H]3CC[C@]12C [Compound 174]	100 to 500%
COC[C@@]1(O)CC[C@@]2(C)[C@@H](CC[C@@H]3[C@@H]2CC[C@]2(C)[C@@H](C(=O)Cn4cnc(C#N)c4)CC[C@@H]32)C1 [Compound 178]	> 500%
C[C@@]1(O)CC[C@@]2(C)[C@@H](CC[C@H]3[C@@H]4CC[C@H](C(=O)Cn5cc(C#N)cn5)[C@@]4(C)CC(=O)[C@@H]32)C1 [Compound 196]	100 to 500%

biological target: [35S]-TBPS binding, rat brain cortical membranes; experiment: Steroid inhibition of TBPS binding ([35S]-TBPS radioligand displacement); details: 3 nM [35S]-TBPS, 5 μM GABA
Method: TBPS binding assays using rat brain cortical membranes in the presence of 5 μM GABA has been described (Gee et al, J. Pharmacol. Exp. Then 1987, 241, 346-353; Hawkinson et al, Mol. Pharmacol. 1994, 46, 977-985; Lewin, A. H et al., Mol. Pharmacol. 1989, 35, 189-194).
Briefly, cortices are rapidly removed following decapitation of carbon dioxide-anesthetized Sprague-Dawley rats (200-250 g). The cortices are homogenized in 10 volumes of […] using a glass/teflon homogenizer and centrifuged at 1500×g for 10 min at 4° C. The resultant supernatants are centrifuged at 10,000×g for 20 min at 4° C. to obtain the P2 pellets. The P2 pellets are resuspended in 200 mM NaCl/50 mM Na—K phosphate pH 7.4 buffer and centrifuged at 10,000×g for 10 min at 4° C. This washing procedure is repeated twice and the pellets are resuspended in 10 volumes of buffer. Aliquots (100 μL) of the membrane suspensions are incubated with 3 nM [^35S]-TBPS and 5 μL aliquots of test drug dissolved in dimethyl sulfoxide (DMSO) (final 0.5%) in the presence of 5 μM GABA. The incubation is brought to a final volume of 1.0 mL with buffer. […] Following a 90 min incubation at room temp, the assays are terminated by filtration through glass fiber filters (Schleicher and Schuell No. 32) using a cell harvester (Braudel) and rinsed three times with ice-cold buffer. Filter bound radioactivity is measured by liquid scintillation spectrometry. Non-linear curve fitting of the overall data for each drug averaged for each concentration is done using Prism (GraphPad).
Various compounds are or can be screened to determine their potential as modulators of [^35S]-TBPS binding in vitro. These assays are or can be performed in accordance with the above discussed procedures.

Compound	IC50
CC(C(=O)[C@H]1CC[C@H]2[C@@H]3CC[C@@H]4C[C@](C)(O)CC[C@]4(C)[C@H]3CC[C@]12C)n1nccn1 (stereo in doubt) [Compound 56, (R)-1-((3R,5R,8R,9S,10S,13S,14S,17S)-3-hydroxyl-3,10,13-trimethylhexadecahydro-1H-cyclopenta[a]phenanthren-17-yl)-2-(2H-1,2,3-triazol-2-yl)propan-1-one]	50 to 100 nM
